Earlier results in patent publication US20150065545A1, “Transdermal Delivery of Anastrozole for Systemic Effect” (Professional Compounding Centers of America, priority 2013, published 2015).

How the values were obtained:
[1] = men with hormone disorders (elevated estradiol) prescribed anastrozole
[2] = after the use of anastrozole for about 7 days

CC(C)(C#N)c1cc(Cn2cncn2)cc(C(C)(C)C#N)c1 [anastrozole, 1,3-benzenediacetonitrile, a, a, a′, a′-tetramethyl-5-(1H-1,2,4-triazol-1-ylmethyl)]
estradiol levels [1]: significant decrease | increase of natural testosterone levels [2]: ≤ 60%
